Among the data in patent US20060035897A1, “Trifluoromethyl substituted benzamides as kinase inhibitors” (priority 2004, published 2006) are melting point values, retold here.

Molecule `Cc1ccc(NC(=O)c2cccc(C(F)(F)F)c2)cc1-c1ccc2ccncc2c1` [Example 1, N-(3-Isoquinolin-7-yl-4-methyl-phenyl)-3-trifluoromethyl-benzamide] registered a melting point of 148 to 152 °C.

With `Cc1ccc(C(=O)Nc2cccc(C(F)(F)F)c2)cc1-c1ccc2ccncc2c1` [Example 3, 3-Isoquinolin-7-yl-4-methyl-N-(3-trifluoromethyl-phenyl)-benzamide], the melting point is 157 to 159 °C.

Turning to `Cc1ccc(NC(=O)c2cccc(C(F)(F)F)c2)cc1-c1ccc2ncsc2c1` [Example 5, N-(3-Benzothiazol-6-yl-4-methyl-phenyl)-3-trifluoromethyl-benzamide], the melting point fell in the range of 94 to 96 °C.

Regarding `Cc1ccc(C(=O)Nc2cccc(C(F)(F)F)c2)cc1-c1ccc2ncsc2c1` [Example 6, 3-Benzothiazol-6-yl-4-methyl-N-(3-trifluoromethyl-phenyl)-benzamide], the melting point lay within 102 to 104 °C.

On to `Cc1ccc(NC(=O)c2cccc(C(F)(F)F)c2)cc1-c1ccc2cnncc2c1` [Example 7, N-(4-Methyl-3-phthalazin-6-yl-phenyl)-3-trifluoromethyl-benzamide], for which the melting point lay in the range of 205 to 206 °C.

`Cc1ccc(C(=O)Nc2cccc(C(F)(F)F)c2)cc1-c1ccc2cnncc2c1` [Example 8, 4-Methyl-3-phthalazin-6-yl-N-(3-trifluoromethyl-phenyl)-benzamide] had a melting point of 270 to 272 °C.

As to `Cc1ccc(NC(=O)c2cccc(C(F)(F)F)c2)cc1-c1ccc2scnc2c1` [Example 9, N-(3-Benzothiazol-5-yl-4-methyl-phenyl)-3-trifluoromethyl-benzamide], the melting point was 90 to 93 °C.

In turn, `Cc1ccc(C(=O)Nc2cccc(C(F)(F)F)c2)cc1-c1ccc2scnc2c1` [Example 10, 3-Benzothiazol-5-yl-4-methyl-N-(3-trifluoromethylphenyl)benzamide] had a melting point of 200 to 202 °C.

As to `Cc1ccc(NC(=O)c2ccc(CN3CCN(C)CC3)c(C(F)(F)F)c2)cc1-c1ccc2cnncc2c1` [Example 15, N-(4-Methyl-3-phthalazin-6-yl-phenyl)-4-(4-methyl-piperazin-1-ylmethyl)-3-trifluoromethyl-benzamide], the melting point fell in the range of 204 to 208 °C.

Consider `Cc1ccc(NC(=O)c2ccc(CN3CCCCC3)c(C(F)(F)F)c2)cc1-c1ccc2cnncc2c1` [Example 17, N-(4-Methyl-3-phthalazin-6-yl-phenyl)-4-piperidin-1-ylmethyl-3-trifluoromethyl-benzamide], for which the melting point is 175 to 177 °C.

As to `Cc1ccc(NC(=O)c2ccc(CN(C)C)c(C(F)(F)F)c2)cc1-c1ccc2cnncc2c1` [Example 19, 4-Dimethylaminomethyl-N-(4-methyl-3-phthalazin-6-yl-phenyl)-3-trifluoromethyl-benzamide], the melting point was 240 to 241 °C.

`Cc1ccc(NC(=O)c2ccc(CN3CCOCC3)c(C(F)(F)F)c2)cc1-c1ccc2cnncc2c1` [Example 20, N-(4-Methyl-3-phthalazin-6-yl-phenyl)-4-morpholin-4-ylmethyl-3-trifluoromethyl-benzamide] had a melting point of 236 to 238 °C.

Take `Cc1ccc(C(=O)Nc2ccc(CN3CCCCC3)c(C(F)(F)F)c2)cc1-c1ccc2cnncc2c1` [Example 22, 4-Methyl-3-phthalazin-6-yl-N-(4-piperidin-1-ylmethyl-3-trifluoromethyl-phenyl)-benzamide]: the melting point is 247 to 249 °C.

`Cc1ccc(C(=O)Nc2ccc(CN3CCOCC3)c(C(F)(F)F)c2)cc1-c1ccc2cnncc2c1` [Example 23, 4-Methyl-N-(4-morpholin-4-ylmethyl-3-trifluoromethyl-phenyl)-3-phthalazin-6-yl-benzamide] displayed a melting point of 284 to 287 °C.

Turning to `Cc1ccc(C(=O)Nc2ccc(CN(C)C)c(C(F)(F)F)c2)cc1-c1ccc2cnncc2c1` [Example 24, N-(4-Dimethylaminomethyl-3-trifluoromethyl-Phenyl)-4-methyl-3-phthalazin-6-yl-benzamide], the melting point is 251 to 254 °C.

For the molecule `Cc1ccc(C(=O)Nc2ccc(CN3CCCC3)c(C(F)(F)F)c2)cc1-c1ccc2cnncc2c1` [Example 25, 4-Methyl-3-phthalazin-6-yl-N-(4-pyrrolidin-1-ylmethyl-3-trifluoromethyl-phenyl)-benzamide], the melting point fell in the range of 246 to 250 °C.

For orientation: melting point means the temperature of the solid-liquid transition.
